“Also recorded” adds a separate entry of the source.

Series [1] relates to mice. As to conditions: mouse, in vivo.
A further series concerns the target T1, HA-MOR1 (Mus musculus, UniProt P42866).
T1 construct: expressed in transfected cells
In words: Receptor internalization assay (ELISA, immunofluorescence staining) in HEK 293 cells: MOR1. As to conditions: HEK 293 cells expressing MOR1 only, or MOR1 and GRPR; agonist 1 μM. It is filed as cell-based.

The target of a further series is T2, Myc-GRPR (Mus musculus, UniProt P21729).
T2 construct: expressed in transfected cells
In words: Receptor internalization assay (ELISA, immunofluorescence staining) in HEK 293 cells: GRPR. It is filed as cell-based. As to conditions: agonist 1 μM, 30 min. For orientation: In an ELISA, binding on a coated surface is turned into a signal by an enzyme label.

In another series the target is T3, HA-MOR1D (Mus musculus, UniProt P42866).
T3 construct: expressed in transfected cells
In words: Receptor internalization assay (ELISA, immunofluorescence staining) in HEK 293 cells: MOR1D. In kind it is cell-based. As to conditions: HEK 293 cells expressing MOR1D, or MOR1D and GRPR; agonist 1 μM.

Series [2] has as its system mice. As to conditions: mouse, in vivo. This is another data set of the same source.
Series [3] concerns HEK 293 cells containing only GRPR. In words: Calcium imaging, cells containing only GRPR. It is filed as cell-based, mouse.
The subject of series [4] is mice. In words: Von Frey assay, naive mice and CFA inflammatory pain model. It is filed as in vivo, mouse. The procedure: In CFA induced inflammatory pain, mice received an injection of CFA (20 μl, Sigma) into the plantar of the right hindpaw. Mechanical sensitivity was assessed using von Frey assay.
Mechanical sensitivity was assessed using a set of calibrated von Frey filaments (Stoelting). Each filament was applied 5 consecutive times and the smallest filament that evoked reflexive flinches of the paw on 3 of the 5 trials was taken as paw withdrawal threshold.

Series [5] relates to HEK 293 cells expressing MOR1D alone. In words: Calcium imaging, cells expressing MOR1D alone. In kind it is cell-based, mouse.
Series [6] relates to mice. In words: Gastrin-releasing peptide induced scratching (GIS). It is filed as in vivo, mouse.
The next series relates to MOR1 mRNA. In words: qRT-PCR after i.t. siRNA: MOR1 mRNA. As to conditions: spinal cord. It is filed as in vivo, mouse. On the procedure:
(§1) Selective siRNA duplexes for mouse Oprm exons, PLCβ1/3 and IP3R3 were intrathecally injected daily for 3 consecutive days. Behavior testing and tissue harvest were carried out at 48 hr after the last injection. RNA was dissolved in diethyl pyrocarbonate-treated PBS and prepared immediately prior to administration by mixing the RNA solution with a transfection reagent, ExGen 500 (Fermentas). The final concentration of RNA was 1.25 μg/5 μl. siRNA or ExGen 500 alone (defined as vehicle) in 5 μl was delivered to the lumbar region of the spinal cord. The injection was given daily for 3 consecutive days (Luo et al., 2005; Tan et al., 2009). Behavior testing and tissue harvest were carried out 48 hr after the last injection.
(§2) LCM were performed as previously described (van Baarlen et al., 2009) with minor modifications. Frozen sections (30 μm thickness) of the lumber spinal cord were cut at −20° C. and stored at −80° C. […]
(§3) RNA was isolated from the LCM sample caps using the PicoPure RNA isolation kit (Arcturus) following manufacturer's recommendations. […] Quantitative PCR amplification was performed in 96-well plates on an Mx3000 QPCR system (Stratagene). […]
(§4) Expression of target mRNA was normalized to expression of 18S rRNA. The differences in mRNA expression between treatments were analyzed using the Comparative CT Method (Gallup et al., 2005). […]

The next series concerns MOR1D mRNA. In words: qRT-PCR after i.t. siRNA: MOR1D mRNA. As to conditions: spinal cord. It is filed as in vivo, mouse. The procedure:
as §1, §2, §3, §4
For orientation: Quantitative PCR measures a nucleic acid by following its amplification.

The target in a further series is T4, GRPR/MOR1D interaction (Mus musculus, UniProt P21729).
T4 construct: co-IP analysis using the membrane extracts of the spinal cord injected with Tat-MOR1DCT and the vehicle; from tissue; host or cells: lumbar spinal cord membrane extract after intrathecal injection
As to conditions: in vivo.

The subject of series [7] is HEK 293 cells co-expressing MOR1 and GRPR. In words: Calcium imaging, cells co-expressing MOR1 and GRPR. It is filed as cell-based, mouse.
[8] abbreviates: HEK 293 cells expressing GRPR alone.

T4 sequence (P21729 whole entry): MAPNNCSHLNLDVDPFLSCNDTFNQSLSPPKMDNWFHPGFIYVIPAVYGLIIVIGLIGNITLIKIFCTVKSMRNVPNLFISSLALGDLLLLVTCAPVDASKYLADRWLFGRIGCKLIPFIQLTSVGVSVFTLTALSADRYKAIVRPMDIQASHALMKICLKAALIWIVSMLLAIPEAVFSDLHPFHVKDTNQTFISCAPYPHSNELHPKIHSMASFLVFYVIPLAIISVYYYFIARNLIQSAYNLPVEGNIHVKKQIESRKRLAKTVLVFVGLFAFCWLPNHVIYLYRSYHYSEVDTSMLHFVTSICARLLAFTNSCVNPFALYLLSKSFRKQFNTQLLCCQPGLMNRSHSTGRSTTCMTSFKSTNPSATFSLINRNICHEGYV
T2 sequence (P21729 whole entry): as above

2-APB: the “effect on MIA” value with mice [1] is “no effect on MIA”.

As for `C[C@@H](NC(=O)[C@@H](N)Cc1ccc(O)cc1)C(=O)NCC(=O)N(C)[C@@H](Cc1ccccc1)C(=O)NCCO` [DAMGO], on HA-MOR1, the “agonist-induced MOR1 internalization” value was “can be internalized”. In addition, the “agonist-induced GRPR internalization” value at Myc-GRPR (setting [8]) is reported as “cannot internalize GRPR”. For the same compound, the “agonist-induced MOR1D internalization” value on HA-MOR1D is reported as “can be internalized”.

As to `COc1ccc2c(c1)CC[C@@H]1[C@@H]2CC[C@]2(C)[C@@H](NCCCCCCN3C(=O)C=CC3=O)CC[C@@H]12` [U73122], in the series with mice [1], the “effect on MIA” value is “did not impact MIA; also recorded: not significantly affected”.

As for `COC(=O)/C=C/C(=O)N[C@@H]1CC[C@@]2(O)[C@H]3Cc4ccc(O)c5c4[C@@]2(CCN3CC2CC2)[C@H]1O5` [beta-FNA], the “effect on MIS” value with mice [2] is “significantly blocked”.

In the case of `CN1CC[C@]23c4c5ccc(O)c4O[C@H]2[C@@H](O)C=C[C@H]3[C@H]1C5` [morphine], in [3], the “calcium response to agonist” value is recorded as “failed to evoke Ca2+ spikes”. Moreover, in the series on mice [4] (i.t. morphine 0.3 nmol, 24 hr after intraplantar CFA), the “mechanical threshold in CFA-treated mice” value is on record as “significantly increased mechanical threshold”. Also, in the series with mice [1], the “MIA enhancement when the morphine dose increased from 0.3 nmol to 1.0 nmol” value was determined as 81%; the “MIA in mice with acute morphine tolerance” value was “significant reduction of MIA relative to the saline control”; the “MIA in mice with chronic morphine tolerance” value is reported as “significant reduction of MIA relative to the saline control; also recorded: showed antinociceptive tolerance”; the “MIA, dose effect of i.t. morphine” value was “increased in a dose-dependent manner”. Besides, the “duration of MIA” value with mice [1] is “maintained at a maximal level for at least one hr”. Further, in the series on mice [2], the “time after which no scratches were seen” value is recorded as 40 min and the “time within which MIS increased dramatically” value is no more than 10 min. Besides, on Myc-GRPR (HEK 293 cells co-expressing MOR1 and GRPR), the “agonist-induced GRPR internalization” value is “failed to induce GRPR internalization; also recorded: when co-expressed with HA-MOR1D but not HA-MOR1”. Moreover, the “agonist-induced GRPR internalization” value at Myc-GRPR (setting [8]) is given as “failed to induce GRPR internalization”. In addition, the “calcium response to agonist” value in series [5] is “neither morphine nor GRP generated a calcium response”.

`C=CCN1CC[C@]23c4c5ccc(O)c4O[C@H]2C(=O)CC[C@@]3(O)[C@H]1C5` [naloxone]: the “effect on GIS” value in the series on mice [6] (naloxone 3 mg/kg s.c.) is recorded as “did not change GIS; also recorded: not significantly affected”.

For the compound “AAACCCUGCAAGAGUUGCAuu (AAACCCUGCAAGAGUUGCAUU; chemistry not given here) [exon 7 siRNA, siRNA duplex for mouse Oprm exon 7]”, the “effect of siRNA knockdown on MIA” value with mice [1] is on record as “had no effect on MIA”.

As for D-Phe-6-Bn(6-13)OMe [GRPR antagonist], the “effect on analgesic effect of intrathecal morphine in CFA model” value in the series with mice [4] (GRPR antagonist 1.0 nmol co-injection, morphine 0.3 nmol i.t.) is given as “not significantly affected”. In addition, in the series with mice [4] (i.t., without morphine), the “effect of the agent itself on acute pain, von Frey” value was “no significant effect on acute pain; also recorded: did not significantly affect the acute pain”. Besides, in the series on mice [1], the “effect of the agent itself on acute pain, tail immersion assay” value was “no significant effect on acute pain; also recorded: did not significantly affect the acute pain” and the “effect on MIA” value was “remained unchanged; also recorded: not significantly affected”.

With “UCUGGAAGCAGAAACUGCUuu (UCUGGAAGCAGAAACUGCUUU; chemistry not given here) [exon 4 siRNA, siRNA duplex for mouse Oprm exon 4]”, the “spinal MOR1 mRNA level” value with MOR1 mRNA is listed as “selectively decreased; also recorded: significantly knocked down”. The “effect of siRNA knockdown on MIA” value in the series on mice [1] is on record as “markedly attenuated MIA; also recorded: significantly reduced morphine analgesic effect”.

As to “UGAGGAACCUUCUUCCUGAuu (UGAGGAACCUUCUUCCUGAUU; chemistry not given here) [exon 9 siRNA, siRNA duplex for mouse Oprm exon 9]”, the “spinal MOR1D mRNA level” value in the series on MOR1D mRNA is reported as “significantly reduced”. In addition, the “effect of siRNA knockdown on GIS” value with mice [6] (mouse, in vivo) is recorded as “no significant reduction of GIS; also recorded: not affected”. Besides, in the series on mice [1], the “effect of siRNA knockdown on MIA” value is on record as “had no effect on MIA”.

Take YGRKKRRQRRRRNEEPSS [Tat-MOR1DCT]: the “amount of GRPR precipitated by MOR1D antibody (GRPR/MOR1D interaction)” value in the series with GRPR/MOR1D interaction is “significantly reduced the amount of GRPR precipitated by MOR1D antibody; also recorded: markedly reduces co-immunoprecipitation of GRPR and MOR1D; also recorded: decreased GRPR/MOR1D interaction”. In the series on mice [6] (mouse, in vivo), the “effect on GIS” value is listed as “unperturbed; also recorded: without affecting GIS”. Besides, the “effect on MIA” value in the series on mice [1] was “unperturbed; also recorded: had no effect on MIA”.

For gastrin-releasing peptide [GRP], in the series with mice [6] (i.t. GRP), the “GIS in MOR KO vs wild-type littermate mice” value is on record as “normal; also recorded: comparable”. The “agonist-induced MOR1 internalization” value at HA-MOR1 is “neither MOR1D nor MOR1 internalized”. The “agonist-induced MOR1D internalization” value on HA-MOR1D is “neither MOR1D nor MOR1 internalized; also recorded: failed to cause MOR1D internalization”. Besides, the “calcium response to agonist” value was “neither morphine nor GRP generated a calcium response” in series [5] and “they responded to GRP” in series [7].
